From US12522597B2, “Methods and compositions for modulating splicing” (Skyhawk Therapeutics, Inc., priority 2019, dated 2026)
Read-outs that look alike come from different tables or passages of the source.

Tests used:
[1] = tested on: Huntingtin (HTT) transcripts; assay: Quantitative splicing assay (HTT), qPCR; format: cell-based; conditions: Homo sapiens, GM04724 (CAG 70/20) Huntington's disease patient lymphoblasts, 24 h
How it was run: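 GM04724 HD patient lymphoblasts (CAG 70/20) dosed 24 h with compound from 2.5 uM to 0.15 nM (0.1% DMSO). Lysates converted to cDNA; TaqMan qPCR measured compound-induced inclusion of a cryptic exon in HTT intron 49.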

mHTT protein = mHTT protein assay (2B7-MW1, Mesoscale Discovery); format: cell-based, human; conditions: GM04724 (CAG 70/20) Huntington's disease patient lymphoblast cells, 48 hours, 2B7-MW1 MSD; read-out: HTT Potency - Protein EC50 mHTT (average)
How it was run: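 GM04724 Huntington's patient lymphoblasts (CAG 70/20) were treated for 48 h at 10 μM to 0.6 nM. mHTT was quantified by 2B7-MW1 MSD immunoassay, whose signal depends on polyQ expansion and HTT fragment size. Viability was run on a parallel plate by CellTiter-Glo.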

[2] = tested on: MDR1-MDCK cell monolayers; assay: MDCK-MDR1 permeability assay (BBB penetration potential); format: in vitro ADME; conditions: dog, MDCK-MDR1, 120 min, 5 μM, pH 7.4
Protocol: (§1) Each determination is performed in duplicate. […] Analytical conditions are outlined below.

MDR1 = assay: as above; format: in vitro ADME; conditions: dog; for efflux ratio at 120 min, 5 μM: MDCK-MDR1, pH 7.4, MDCK-MDR1: Efflux; for Papp A→B at 120 min, 5 μM: MDCK-MDR1, pH 7.4, MDCK-MDR1: Papp A-B; for Papp B→A at 120 min, 5 μM: MDCK-MDR1, pH 7.4, MDCK-MDR1: Papp B-A
Protocol: as §1

[3] = qPCR HTTex49_50, read-out: HTT Potency - Splicing: E49-50 EC50 (average)
[4] = qPCR cryptic exon 49b inclusion, read-out: HTT Potency - Splicing: E49b EC50 (average)

Row | Structure (SMILES) | EC50 [1, 3] [nM] | EC50 [1, 4] [nM] | EC50 (mHTT protein) [nM] | MDCK-MDR1: % Recov A-B [2] [%] | MDCK-MDR1: % Recov B-A [2] [%] | efflux ratio at 120 min, 5 μM (MDR1) | Papp A→B at 120 min, 5 μM (MDR1) [×10⁻⁶ cm/s] | Papp B→A at 120 min, 5 μM (MDR1) [×10⁻⁶ cm/s]
1 | Cn1cc(-c2ccc(-c3ccc(O[C@@H]4C[C@H]5CCC[C@H](N5)[C@@H]4F)nn3)c(O)c2)cn1 (single isomer, unassigned) [1-ENT1] | 16 to 50 | 16 to 50 | 0.01 to 15 | 85 | 84 | 6 | 6.16 | 37.9
2 | Cn1ccc(-c2ccc(-c3ccc(O[C@H]4C[C@@H]5CCC[C@@H](N5)[C@H]4F)nn3)c(O)c2)n1 (single isomer, unassigned) [68-ENT2] | 16 to 50 | 16 to 50 | 101 to 500 | 76 | 89 | 4 | 8.23 | 31.6
3 | Cn1ccc(-c2ccc(-c3ccc(O[C@@H]4C[C@H]5CCC[C@H](N5)[C@@H]4F)nn3)c(O)c2)cc1=O (single isomer, unassigned) [54-ENT1] | 16 to 50 | 16 to 50 | 0.01 to 15 | 94 | 105 | 57 | 1.1 | 63
4 | Oc1cc(-n2cccn2)ccc1-c1ccc(O[C@H]2C[C@@H]3CC[C@@H](N3)[C@H]2F)nn1 (single isomer, unassigned) [35-ENT2] | 101 to 500 | 101 to 500 | 51 to 100 | 62 | 68 | 4 | 6.25 | 24
5 | Cn1cc(-c2cc(O)c(-c3ccc(O[C@@H]4C[C@H]5CCC[C@H](N5)[C@@H]4F)nn3)cc2F)cn1 (single isomer, unassigned) [82-ENT1] | 0.01 to 15 | 0.01 to 15 | 0.01 to 15 | 45 | 72 | 4 | 4.12 | 16.8
6 | Cn1ccc2cc(-c3ccc(O[C@H]4CC5CCC[C@@H](N5)[C@H]4F)nn3)c(O)cc2c1=O (single isomer, unassigned) [125-ENT1] | 101 to 500 | 51 to 100 | 51 to 100 | 101 | 91 | 23 | 3.35 | 76
7 | Oc1cc(-c2cn[nH]c2)ccc1-c1ccc(O[C@H]2C[C@@H]3CC(F)(F)[C@H](C2)N3)nn1 (single isomer, unassigned) [46-ENT1] | 501 to 10000 | 501 to 10000 | 501 to 10000 | 70 | 88 | 3 | 18.3 | 47
8 | Cn1cc(-c2cc(O)c(-c3ccc(O[C@H]4C[C@@H]5CC[C@@H](N5)[C@H]4F)nn3)cc2F)cn1 (single isomer, unassigned) [61-ENT2] | 16 to 50 | 0.01 to 15 | 0.01 to 15 | 36 | 71 | 3 | 4.5 | 12.2
9 | Oc1cc(-c2cn[nH]c2)ccc1-c1ccc(O[C@@H]2C[C@H]3CC[C@H](N3)[C@H]2F)nn1 (single isomer, unassigned) [43-ENT2] | 16 to 50 | 16 to 50 | 0.01 to 15 | 83 | 84 | 9 | 6.27 | 58.7
10 | Cn1cc(-c2ccc(-c3ccc(O[C@H]4C[C@@H]5CCC[C@@H](N5)[C@H]4F)nn3)c(O)c2)oc1=O (single isomer, unassigned) [97-ENT2] | 16 to 50 | 16 to 50 | 0.01 to 15 | 74 | 82 | 10 | 3.11 | 32
11 | Cn1ccc(-c2ccc(-c3ccc(O[C@H]4C[C@@H]5CCC[C@@H](N5)[C@H]4F)nn3)c(O)c2)cc1=O (single isomer, unassigned) [54-ENT2] | 16 to 50 | 16 to 50 | 16 to 50 | 101 | 107 | 34 | 1.8 | 61.9
12 | Oc1cc(-c2cn[nH]c2)ccc1-c1ccc(O[C@H]2C[C@@H]3CC[C@@H](N3)[C@@H]2F)nn1 (single isomer, unassigned) [43-ENT1] | 16 to 50 | 16 to 50 | 0.01 to 15 | 76 | 79 | 7 | 7.44 | 48.9
13 | Cn1cc(-c2ccc(-c3ccc(O[C@H]4C[C@]5(C)CCC[C@@](C)(N5)[C@H]4F)nn3)c(O)c2)cn1 (single isomer, unassigned) [154-ENT1] | 16 to 50 | 0.01 to 15 | 16 to 50 | 73 | 87 | 4 | 9.33 | 37.7
14 | Oc1cc(-c2nnco2)ccc1-c1ccc(O[C@H]2C[C@@H]3CC[C@@H](N3)[C@H]2F)nn1 (single isomer, unassigned) [140-ENT1] | 101 to 500 | 101 to 500 | 101 to 500 | 92 | 95 | 2 | 18.1 | 43.3
15 | O=c1cc(-c2ccc(-c3ccc(O[C@H]4C[C@@H]5CCC[C@@H](N5)[C@H]4F)nn3)c(O)c2)cc[nH]1 (single isomer, unassigned) [53-ENT2] | 101 to 500 | 101 to 500 | 101 to 500 | 104 | 103 | 106 | 0.22 | 23.2
16 | Cn1cc(-c2ccc(-c3ccc(O[C@@H]4C[C@H]5CCC[C@H](N5)[C@@H]4F)nn3)c(O)c2)oc1=O (single isomer, unassigned) [97-ENT1] | 16 to 50 | 16 to 50 | 0.01 to 15 | 83 | 78 | 14 | 3.67 | 50.4
17 | Cn1cnc(-c2ccc(-c3ccc(O[C@@H]4C[C@@]5(C)CCC[C@](C)(N5)[C@@H]4F)nn3)c(O)c2)cc1=O (single isomer, unassigned) [139-ENT1] | 16 to 50 | 16 to 50 | 0.01 to 15 | 75 | 75 | 14 | 2.36 | 32.1
